Experimental data taken from US10450336B2 (Los Alamos National Security, LLC, priority 2014, dated 2019).

Test: radiolabeling kinetics of the ligands with Bi-207 (radio-TLC)
Conditions: bismuth complexation, comparison among the four ligands
Description: The radiolabeling kinetics of the ligands L^py, L^pyd, L^pyr, and L^pz with bismuth ions was examined using Bi-207 (t1/2=32 years) because it has a much longer half life than Bi-213. Solutions having concentrations of 1, 10, 100, and 1000 micromolar (“μM”) of each of the ligands were prepared. Each solution was combined with 3 kBq of Bi-207. The reaction temperature was ambient room temperature (21±2° C.). Aliquots of each reaction mixture were obtained during the reaction and analyzed by radio-TLC. The rates of reaction (i.e. the radiolabeling kinetics) between the bismuth ions and the ligands were dependent on the individual ligand and also on the concentration of the ligand. At a ligand concentration of 1 μM, a maximum of 50% labeling was observed after 60 minutes. At a ligand concentration of 1000 micromolar, the reaction was nearly 100% complete (i.e. 100% of the ligand was labeled with Bi-207) after 5 minutes. FIG. 3 provides a graph of the radiolabeling kinetics for the four ligands at a ligand concentration of 100 μM. […] By comparison, chelation of Bi-213 with the known ligands DOTA and CHX-DTPA requires heating to 90° C.

With `c1cnc(CN2CCN(Cc3cnccn3)CCN(Cc3cnccn3)CCN(Cc3cnccn3)CC2)cn1` [L^py, 1,4,7,10-Tetrakis(2-pyrazinylmethyl)-1,4,7,10-tetraazacyclododecane, reference compound] the “complexation kinetics (relative)” value was “slowest”.
